According to paper PMC10804407, “Rombocin, a Short Stable Natural Nisin Variant, Displays Selective Antimicrobial Activity against Listeria monocytogenes and Employs a Dual Mode of Action to Kill Target Bacterial Strains” (ACS Synthetic Biology, 2024):
Values after ≈ are worked out from the molar mass of the structure shown. Where two headings read alike, the source gives them in different places. Primed or numbered codes have the meaning given here. Where no end group is shown, it is not given here. [ ]: non-standard residue; d: D form. Dhb′ = not defined here; Dha = C=C(N)C(=O)O

How the values were obtained:
[1] = test system: L. lactis MG1363; format: cell-based, Lactococcus lactis
Description: (§1) Each experiment was performed in triplicate.

[2] = test system: L. monocytogenes LK132; format: cell-based, Listeria monocytogenes
Description: as §1

[3] = test system: L. monocytogenes LMG10470; format: cell-based, Listeria monocytogenes
Description: as §1

[4] = test system: L. monocytogenes TT82E; format: cell-based, Listeria monocytogenes
Description: as §1

[5] = test system: Bacillus cereus CH-85; format: cell-based
Description: as §1

[6] = test system: S. aureus LMG10147; format: cell-based, Staphylococcus aureus
Description: as §1

[7] = test system: S. aureus LMG15975 (MRSA); format: cell-based, Staphylococcus aureus
Description: as §1

[8] = test system: E. faecium LMG11423; format: cell-based, Enterococcus faecium
Description: as §1

[9] = test system: E. faecium LMG16003 (VRE); format: cell-based, Enterococcus faecium
Description: as §1

[10] = test system: E. faecalis LMG16216 (VRE); format: cell-based, Enterococcus faecalis
Description: as §1

[11] = test system: L. lactis; experiment: Fluorescence microscopy assay of membrane integrity (SYTO 9 / propidium iodide); format: cell-based, Lactococcus lactis; conditions: 5× MIC, 15 min / 20 min (method), room temperature
Description: L. lactis was cultured until it reached an OD600 of 0.8 and then pelleted at 8000g for 5 min and washed three times in 0.7% NaCl. The cell density was normalized to an OD600 of 0.4 in 0.7% NaCl, and a concentration of 5-fold MIC value of each tested antibiotic was added to the cell suspension simultaneously with SYTO 9 and propidium iodide using the LIVE/DEAD Baclight Bacterial Viability Kit (Invitrogen). After incubation at room temperature for 20 min, the compounds were removed by washing the cells with 0.7% NaCl. Finally, the cell suspensions were loaded onto 1.5% agarose pads and analyzed with a DeltaVision Elite microscope (Applied Precision).

[12] = test system: L. lactis; experiment: Potassium ion efflux assay (PBFI probe); format: cell-based, Lactococcus lactis; conditions: 5× MIC, 10 mM HEPES pH 7.2 with 0.5% glucose, 10 μM PBFI
Description: To perform the K^+ release assay, we used the K^+-specific fluorescent probe PBFI. L. lactis was cultured in GM17 until the OD600 reached 0.6, after which the cells were harvested (5000g, 5 min) and washed twice with 10 mM HEPES (pH 7.2) with 0.5% glucose. The cells were then resuspended in the same buffer containing 10 μM PBFI. Data were analyzed using a Varioskan LUX Multimode Microplate Reader; cells were excited at 346 nm, and the fluorescence emission was measured at 505 nm to establish a baseline signal before the addition of 5-fold MIC antibiotics, after which data were collected. Nisin was used as a positive control.

[13] = test system: L. lactis; experiment: Membrane potential determination (DiSC3(5) probe); format: cell-based, Lactococcus lactis; conditions: 5× MIC, 10 mM HEPES with 10 mM glucose pH 7.2, 2 μM DiSC3(5), 25 min
Description: To measure the membrane potential, the membrane potential-sensitive fluorescent dye DiSC3(5) was utilized. L. lactis was cultured to an OD600 of 0.8, pelleted at 5000g for 5 min, and washed twice in 10 mM HEPES with 10 mM glucose (pH 7.2). The cell density was adjusted to an OD600 of 0.2 and loaded with 2 μM DiSC3(5) dye, followed by 20 min of incubation in the dark to stabilize the probe fluorescence. Next, the cell suspension was added to a 96-well microplate and incubated for 5 min with 100 mM KCl. […] The fluorescence spectrometer’s excitation and emission wavelengths were adjusted to 622 and 670 nm, respectively. Three technical replicates were performed, and the representative example is shown.

[14] = test system: trypsin, chymotrypsin, and proteinase K; experiment: Stability against proteolytic enzymes by residual antimicrobial activity; format: in vitro ADME; conditions: 40 μL peptide (1 mg/mL) with 1 mg/mL proteolytic enzymes, room temperature, 3 h; residual activity in agar well vs L. lactis 1363; triplicate
Description: To investigate the impact of proteolytic enzymes, pH, and temperature on the antimicrobial activity, a representative strain of L. lactis 1363 was utilized. For the proteolytic enzyme assay, 40 μL of peptide (1 mg/mL) was incubated with or without final concentrations of 1 mg/mL proteolytic enzymes at room temperature for 3 h, followed by an activity test in the agar well. To determine pH stability, the pH was adjusted to 2, 4, 7, and 10 using 1 M HCl or NaOH. The temperature stability was assessed by incubating the peptide at 22, 50, 70, and 90 °C for a specified duration. All experiments were performed in triplicate.
Overnight cultures of the test strains were inoculated at a final concentration of 0.1% (v/v) into melted LB agar at 45 °C and then poured onto plates. After solidification, 8 mm wells were created and filled with 40 μL of the lantibiotic solution (1 mg/mL). The lantibiotics were activated by adding 5 μL of NisP directly to the well. The plates were then incubated overnight at 30 °C, and the zone of inhibition was measured. Zone diameters were calculated by subtracting the area of the well (πr^2) from the area of the zone (πr^2) and reported in millimeters. To determine the peptide concentration, purified and lyophilized peptides were resuspended in 0.05% aqueous acetic acid solution and quantified by HPLC following the protocol described by Schmitt et al.[44] […]

[15] = test system: L. monocytogenes LMG10470; experiment: Agar well diffusion assay and mutant-activity test; format: cell-based, Listeria monocytogenes; conditions: 40 μL of 1 mg/mL, zone of inhibition, triplicate
Description: Overnight cultures of the test strains were inoculated at a final concentration of 0.1% (v/v) into melted LB agar at 45 °C and then poured onto plates. After solidification, 8 mm wells were created and filled with 40 μL of the lantibiotic solution (1 mg/mL). The lantibiotics were activated by adding 5 μL of NisP directly to the well. The plates were then incubated overnight at 30 °C, and the zone of inhibition was measured. Zone diameters were calculated by subtracting the area of the well (πr^2) from the area of the zone (πr^2) and reported in millimeters. To determine the peptide concentration, purified and lyophilized peptides were resuspended in 0.05% aqueous acetic acid solution and quantified by HPLC following the protocol described by Schmitt et al.[44] All experiments were performed in triplicate.

[16] = test system: L. lactis MG1363; experiment: Time-kill assay; format: cell-based, Lactococcus lactis; conditions: L. lactis, 5-fold MIC, time-dependent killing
Description: The bactericidal activity of nisin, nisin(1–22), and rombocin was evaluated according to a previously described procedure based on Guo et al.[38] Briefly, an overnight culture of L. lactis MG1363 was diluted 50-fold in GM17 medium and incubated at 30 °C. The bacteria were grown until reaching an optical density at 600 nm (OD600) of 0.5, at which point the cell concentration was adjusted to 5 × 10^5 CFU/mL. Subsequently, the bacteria were challenged with a 5-fold MIC of each peptide. A control sample of an untreated cell suspension was included. At specific time points, 50 μL aliquots were collected, and undiluted and 10-fold serially diluted suspensions were plated on GM17 agar. The plates were incubated overnight at 30 °C, and the resulting colonies were counted and calculated as colony-forming units per milliliter (CFU/mL). Both assays were performed in triplicate to ensure reproducibility.

For `C=C(NC(=O)[C@@H](NC(=O)[C@H](Cc1c[nH]cn1)NC(=O)[C@@H](NC(=O)[C@H](CO)NC(=O)[C@@H]1CS[C@@H](C)[C@H]2NC(=O)[C@H](C)NC(=O)[C@H](NC(=O)[C@H](CCCCN)NC(=O)[C@H](CCSC)NC(=O)[C@H](CC(N)=O)NC(=O)[C@@H]3CS[C@@H](C)[C@@H](NC(=O)[C@H](CCCCN)NC(=O)[C@@H]4CS[C@@H](C)[C@@H](NC(=O)[C@@H]5CSC[C@@H](NC(=O)/C(=C/C)NC(=O)[C@@H](N)[C@@H](C)CC)C(=O)N[C@@H]([C@@H](C)CC)C(=O)NC(=C)C(=O)N[C@@H](CC(C)C)C(=O)N5)C(=O)N5CCC[C@H]5C(=O)NCC(=O)N4)C(=O)NCC(=O)N[C@@H](C)C(=O)N[C@@H](CC(C)C)C(=O)N[C@@H](CCSC)C(=O)NCC(=O)N3)[C@H](C)SC[C@H](NC2=O)C(=O)N[C@@H](CC(N)=O)C(=O)N1)[C@@H](C)CC)C(C)C)C(=O)N[C@@H](CCCCN)C(=O)O` [nisin Z, reference compound], the MIC ([1]; L. lactis MG1363, broth microdilution, lowest concentration with no visible growth, triplicate) was 0,02 μg/mL, the “fold lower MIC of nisin than that of rombocin” value ([1]; against L. lactis) was 40 times and the MIC ([2]; L. monocytogenes LK132, broth microdilution, no visible growth, triplicate) was 12,5 μg/mL. For the same compound, the “fold lower MIC of nisin than rombocin A” value ([2]; against L. monocytogenes LK132) was 2 fold, the MIC ([3]; L. monocytogenes LMG10470, broth microdilution, no visible growth, triplicate) was 3,13 μg/mL and the MIC ([4]; L. monocytogenes TT82E, broth microdilution, no visible growth, triplicate) was 1,56 μg/mL. For the same compound, the MIC ([5]; Bacillus cereus CH-85, broth microdilution, no visible growth, triplicate) was 6,25 μg/mL, the “fold lower MIC of nisin than rombocin A” value ([5]; against Bacillus cereus) was 4 fold and the MIC ([6]; S. aureus LMG10147, broth microdilution, no visible growth, triplicate) was 6,25 μg/mL. For the same compound, the “fold lower MIC of nisin than rombocin A” value ([6]; against S. aureus (strain not given)) was 16 fold, the MIC ([7]; S. aureus LMG15975 (MRSA), broth microdilution, no visible growth, triplicate) was 6,25 μg/mL and the MIC ([8]; E. faecium LMG11423, broth microdilution, no visible growth, triplicate) was 3,13 μg/mL. The “fold higher antimicrobial activity of nisin than rombocin A (MIC)” value ([8]; against Enterococcus faecium (strain not given)) was 32 times, the MIC ([9]; E. faecium LMG16003 (VRE), broth microdilution, no visible growth, triplicate) was 3,13 μg/mL and the MIC ([10]; E. faecalis LMG16216 (VRE), broth microdilution, no visible growth, triplicate) was 3,13 μg/mL. For the same compound, the “fold lower MIC of nisin than rombocin A” value ([10]; against Enterococcus faecalis) was 16 fold, the “membrane integrity (SYTO 9 / propidium iodide fluorescence)” value [11] was “membrane disruption” and the “release of intracellular potassium ions (PBFI fluorescence)” value [12] was “immediate increase in signal”. For the same compound, the “membrane depolarization (DiSC3(5) fluorescence)” value [13] was “significant membrane depolarization, similar to nisin” and the “resistance to proteolytic enzymes” value [14] was “varying stability”.

With `C=C1NC(=O)[C@H]([C@@H](C)CC)NC(=O)[C@H](NC(=O)/C(=C/C)NC(=O)[C@@H](N)[C@@H](C)CC)CSC[C@@H](C(=O)N[C@H]2C(=O)N[C@@H](C)C(=O)NCC(=O)N[C@H](C(=O)N[C@@H](CCCCN)C(=O)N[C@H]3C(=O)NCC(=O)N[C@@H](C(C)C)C(=O)N[C@@H]([C@@H](C)CC)C(=O)N[C@@H](CCSC)C(=O)N/C(=C\C)C(=O)N[C@H](C(=O)N[C@@H](CCSC)C(=O)N[C@@H]4CSC[C@@H](C(=O)N[C@@H](CCCCN)C(=O)O)NC(=O)CNC(=O)[C@H](CC(N)=O)NC4=O)CS[C@H]3C)CS[C@H]2C)NC(=O)[C@H](CC(C)C)NC1=O` [rombocin K] the MIC ([1]; MG1363) was 0,78 μg/mL, the MIC ([2]; LK132) was 12,5 μg/mL and the MIC ([3]; LMG10470) was 12,5 μg/mL. For the same compound, the “fold lower MIC compared to the wild-type rombocin” value ([3]; against all tested Listeria strains) was 2 fold, the MIC ([4]; TT82E) was 6,25 μg/mL and the MIC ([5]; CH-85) was 25 µg/mL (≈ 10.4 µM). The MIC ([6]; LMG10147) was 100 µg/mL (≈ 41.7 µM), the MIC ([7]; LMG15975) was 100 µg/mL (≈ 41.7 µM) and the MIC ([8]; LMG11423) was 50 µg/mL (≈ 20.9 µM). For the same compound, the MIC ([9]; LMG16003) was 50 µg/mL (≈ 20.9 µM), the MIC ([10]; LMG16216) was 50 µg/mL (≈ 20.9 µM) and the “increase in antimicrobial activity relative to wild-type rombocin” value [15] was 13%.

For “nisin(1–22): truncated nisin variant, bacteriostatic control that only binds lipid II (I[Dhb′]SI[Dha]LCTPGCKTGALMGCNMK; also: lantibiotic: thioether rings and dehydrated residues not placed; UniProt P13068 24-45, looked up, fragment)”, the “bacteriostatic or bactericidal activity” value [16] was “bacteriostatic effect”, the “membrane integrity (SYTO 9 / propidium iodide fluorescence)” value [11] was “did not cause any significant membrane disruption” and the “release of intracellular potassium ions (PBFI fluorescence)” value [12] was “did not have this effect”. For the same compound, the “membrane depolarization (DiSC3(5) fluorescence)” value [13] was “did not”.
